Test results taken from the supplement of paper PMC10307832.

Columns and labels:
Assay in all cases: relative viability (nuclei count vs DMSO), 5 days (fraction); higher = more cells survive
Decitabine + Foretinib = compound: Nc1ncn([C@H]2C[C@H](O)[C@@H](CO)O2)c(=O)n1 [Decitabine] + COc1cc2c(Oc3ccc(NC(=O)C4(C(=O)Nc5ccc(F)cc5)CC4)cc3F)ccnc2cc1OCCCN1CCOCC1 [Foretinib] (partner 0.25 µM)
In short: (§1)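 Lung cancer cell lines in 1536-well plates got either a single drug or a fixed anchor-drug dose together with five library-drug doses (not always all listed) in √10 steps, by pin tool, on the day after seeding. Nuclei were counted after 5 days, and relative viability is the treated-to-vehicle ratio of nuclei counts. Values are medians of duplicate plates.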

Decitabine + Alpelisib = compound: Nc1ncn([C@H]2C[C@H](O)[C@@H](CO)O2)c(=O)n1 [Decitabine] + Cc1nc(NC(=O)N2CCC[C@H]2C(N)=O)sc1-c1ccnc(C(C)(C)C(F)(F)F)c1 [Alpelisib] (partner 2 µM)
In short: as §1

[1] = compound: O=C(C[C@H]1NCCC[C@@H]1O)Cn1cnc2cc(Br)c(Cl)cc2c1=O (racemic) [Halofuginone] + Nc1ncn([C@H]2C[C@H](O)[C@@H](CO)O2)c(=O)n1 [Decitabine] (partner 2 µM)
In short: as §1

Cediranib + Alpelisib = compound: COc1cc2c(Oc3ccc4[nH]c(C)cc4c3F)ncnc2cc1OCCCN1CCCC1 [Cediranib] + Cc1nc(NC(=O)N2CCC[C@H]2C(N)=O)sc1-c1ccnc(C(C)(C)C(F)(F)F)c1 [Alpelisib] (partner 2 µM)
In short: as §1

| Cell Line | relative viability (Decitabine + Foretinib; first compound 0.04 µM) | relative viability (Decitabine + Foretinib; first compound 0.1265 µM) | relative viability (Decitabine + Foretinib; first compound 0.4 µM) | relative viability (Decitabine + Foretinib; first compound 1.265 µM) | relative viability (Decitabine + Foretinib; first compound 4 µM) | relative viability (Decitabine + Alpelisib; first compound 0.04 µM) | relative viability (Decitabine + Alpelisib; first compound 0.1265 µM) | relative viability (Decitabine + Alpelisib; first compound 0.4 µM) | relative viability (Decitabine + Alpelisib; first compound 1.265 µM) | relative viability (Decitabine + Alpelisib; first compound 4 µM) | relative viability ([1]; first compound 0.001 µM) | relative viability ([1]; first compound 0.003162 µM) | relative viability ([1]; first compound 0.01 µM) | relative viability ([1]; first compound 0.03162 µM) | relative viability ([1]; first compound 0.1 µM) | relative viability (Cediranib + Alpelisib; first compound 0.04 µM) | relative viability (Cediranib + Alpelisib; first compound 0.1265 µM) | relative viability (Cediranib + Alpelisib; first compound 0.4 µM) | relative viability (Cediranib + Alpelisib; first compound 1.265 µM) | relative viability (Cediranib + Alpelisib; first compound 4 µM) |
| --- | --- | --- | --- | --- | --- | --- | --- | --- | --- | --- | --- | --- | --- | --- | --- | --- | --- | --- | --- | --- |
| NCI-H1437 | 1.11 | 0.881 | 0.657 | 0.468 | 0.391 | 0.787 | 0.679 | 0.464 | 0.246 | 0.215 | 0.621 | 0.555 | 0.513 | 0.522 | 0.522 | 1.02 | 1.03 | 0.971 | 0.954 | 1.12 |
| NCI-H1651 | 0.685 | 0.942 | 0.783 | 0.647 | 0.526 | 0.834 | 0.902 | 0.861 | 0.718 | 0.633 | 0.592 | 0.563 | 0.601 | 0.591 | 0.58 | 1.04 | 1.03 | 1.02 | 1.01 | 0.805 |
| NCI-H1666 | 0.91 | 0.86 | 0.776 | 0.662 | 0.68 | 0.797 | 0.753 | 0.606 | 0.489 | 0.473 | 0.769 | 0.601 | 0.724 | 0.795 | 0.794 | 1.04 | 0.995 | 0.875 | 0.924 | 0.962 |
| NCI-H1734 | 0.765 | 0.685 | 0.651 | 0.474 | 0.339 | 0.5 | 0.615 | 0.535 | 0.399 | 0.324 | 0.542 | 0.508 | 0.522 | 0.491 | 0.293 | 0.626 | 0.741 | 0.711 | 0.619 | 0.848 |
| NCI-H1755 | 0.889 | 0.886 | 0.804 | 0.565 | 0.447 | 0.847 | 0.858 | 0.825 | 0.511 | 0.348 | 0.693 | 0.699 | 0.726 | 0.746 | 0.748 | 1 | 0.919 | 0.854 | 0.918 | 1.01 |
| NCI-H1793 | 0.631 | 0.641 | 0.533 | 0.351 | 0.406 | 0.695 | 0.565 | 0.573 | 0.433 | 0.392 | 0.511 | 0.6 | 0.505 | 0.5 | 0.21 | 0.683 | 0.694 | 0.64 |  | 0.788 |
| NCI-H1915 | 0.534 | 0.396 | 0.326 | 0.314 | 0.326 | 0.475 | 0.301 | 0.272 | 0.227 | 0.247 | 0.25 | 0.265 | 0.257 | 0.274 | 0.253 | 1.05 | 1 | 0.997 | 1.08 | 1.09 |
| NCI-H1944 | 0.766 | 0.752 | 0.567 | 0.444 | 0.396 | 0.874 | 0.797 | 0.725 | 0.473 | 0.435 | 0.4 | 0.435 | 0.396 | 0.407 | 0.451 | 0.876 | 1.16 | 0.757 | 0.785 | 0.815 |
| NCI-H1975 | 0.63 | 0.546 | 0.265 | 0.317 | 0.31 | 0.414 | 0.357 | 0.318 | 0.292 | 0.275 | 0.4 | 0.408 | 0.436 | 0.385 | 0.285 | 0.716 | 0.621 | 0.619 | 0.677 | 0.591 |
| NCI-H1993 | 0.746 | 0.693 | 0.824 | 0.742 | 0.771 | 0.775 | 0.725 | 0.629 | 0.699 | 0.634 | 0.636 | 0.635 | 0.52 | 0.565 | 0.443 | 0.734 | 0.709 | 0.631 | 0.677 | 0.791 |
| NCI-H2009 | 1.21 | 0.808 | 0.627 | 0.494 | 0.438 | 1 | 0.88 | 0.593 | 0.413 | 0.303 | 0.343 | 0.332 | 0.403 | 0.415 | 0.308 | 1.18 | 1.13 | 1.09 | 1.16 | 1.14 |
| NCI-H2023 | 0.649 | 0.617 | 0.369 | 0.265 | 0.189 | 0.438 | 0.461 | 0.305 | 0.214 | 0.188 | 0.234 | 0.232 | 0.213 | 0.182 | 0.0828 | 0.667 | 0.706 | 0.58 | 0.559 | 0.667 |
| NCI-H2085 | 0.695 | 0.556 | 0.407 | 0.457 | 0.426 | 0.767 | 0.617 | 0.554 | 0.379 | 0.433 | 0.562 | 0.542 | 0.546 | 0.581 | 0.52 | 1.02 | 0.94 | 0.974 | 1.09 | 0.953 |
| NCI-H2087 | 0.558 | 0.624 | 0.393 | 0.317 | 0.269 | 0.683 | 0.564 | 0.487 | 0.338 | 0.36 | 0.3 | 0.356 | 0.308 | 0.27 | 0.228 | 1.05 | 1.25 | 1.18 | 1.11 | 1.14 |
| NCI-H2126 | 1.05 | 0.929 | 0.607 | 0.583 | 0.466 | 0.673 | 0.659 | 0.521 | 0.521 | 0.424 | 0.586 | 0.612 | 0.58 | 0.52 | 0.588 | 0.776 | 0.796 | 0.732 | 0.662 | 0.781 |
| NCI-H2170 | 0.87 | 0.85 | 0.767 | 0.437 | 0.393 | 0.558 | 0.674 | 0.616 | 0.43 | 0.315 | 0.479 | 0.47 | 0.453 | 0.489 | 0.457 | 0.823 | 0.901 | 0.744 | 0.748 | 0.882 |
